Counter-ions that a name gives are not always drawn.
The molecules below were run against T1, FAAH in human bladder epithelial cancer-derived cell line 5678 cells (Homo sapiens, UniProt O00519) (assay: Screening for FAAH activity-inhibiting substance with human bladder epithelial cancer-derived cell (IC50, Table 64)).
T1 construct: host or cells: human bladder epithelial cancer-derived cell line ('5678' [sic], HTB-9)
T1 sequence (O00519 1-579): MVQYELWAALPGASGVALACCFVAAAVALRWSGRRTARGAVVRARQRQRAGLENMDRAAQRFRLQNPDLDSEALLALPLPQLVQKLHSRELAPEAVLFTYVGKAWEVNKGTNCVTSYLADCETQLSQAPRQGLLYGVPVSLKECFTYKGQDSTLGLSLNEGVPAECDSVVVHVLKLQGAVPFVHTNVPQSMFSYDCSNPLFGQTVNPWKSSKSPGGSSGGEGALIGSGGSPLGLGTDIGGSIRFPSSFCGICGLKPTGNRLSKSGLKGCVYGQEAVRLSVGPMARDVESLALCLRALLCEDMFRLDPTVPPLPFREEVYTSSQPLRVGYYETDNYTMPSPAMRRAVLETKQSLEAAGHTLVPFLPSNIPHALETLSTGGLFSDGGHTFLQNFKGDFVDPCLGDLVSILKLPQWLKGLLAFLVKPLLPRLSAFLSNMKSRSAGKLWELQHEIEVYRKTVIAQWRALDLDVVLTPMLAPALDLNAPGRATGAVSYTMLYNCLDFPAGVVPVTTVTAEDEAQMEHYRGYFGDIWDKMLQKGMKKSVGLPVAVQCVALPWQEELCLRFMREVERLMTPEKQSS
Format: cell-based
Procedure: Screening for FAAH Activity-Inhibiting Substance with Human Bladder Epithelial Cancer-Derived Cell
(1) Screening for FAAH Activity-Inhibiting Substance:
Human bladder epithelial cancer-derived cell line […] cells (HTB-9; ATCC) were seeded on a 48-well cell culture plate in an amount of 1×10^5 cell/well, using 10% fetal bovine serum (HyClone)-containing RPMI1640 medium (Invitrogen). After incubated at 37° C. for at least 12 hours, the cells were washed with 400 μl/well of a buffer (Hank's Balanced Salt Solution, 20 mM Hepes-NaOH (pH 7.4)). A test substance dissolved in DMSO was added to a substrate solution (the above buffer containing 3 μCi/ml radiolabeled anandamide (Anandamide [ethanolamine 1-3H]) and 10 μM anandamide) so as to have a concentration of from 0.003 nM to 30 nM. As a control, DMSO alone was added. 100 μl/well of the substrate solution was added to the above cells, and incubated in a CO2 incubator at 37° C. for 30 minutes. Next, the cell culture plate was transferred onto ice, and the substrate solution was removed by suction; and 75 μl/well of a cytolytic solution (the above buffer containing 0.5% Triton X-100, and 10 μM of FAAH-inhibitory activity-having compound, 3′-carbamoylbiphenyl-3-yl cyclohexylcarbamate (URB597; Cayman chemical; Kathuria et al., Nature Med., Vol. 9, pp. 76-81, 2003)) was added thereto, followed by stirring. The resulting cell lysate in every well was individually transferred into a 1.5 ml sample tube, to which was added 150 μl of 1:1 (by volume) chloroform/methanol solution, followed by vortexing. This was centrifuged (15000 rpm, 2 minutes), whereby the decomposed product, ethanolamine (ethanolamine 1-^3H) was separated in the upper layer (water/methanol layer) and the unreacted radiolabeled anandamide was in the lower layer (chloroform layer). 25 μl of the upper layer was transferred into a 96-well organic solvent-resistant white microplate (PicoPlate-96; Perkin Elmer), 150 μl of Microscint-20 (Perkin Elmer) was added thereto, and this was measured with a microplate scintillation counter (TopCount™; Beckman). As compared with the control, the substance that gave a decreased value was selected as an FAAH activity-inhibiting substance.
(2) Measurement of IC50 Value of FAAH Activity-Inhibiting Substance:
A test compound dissolved in DMSO to have a concentration of 10 mM was dissolved in the substrate solution so as to have a varying concentration of from 0.003 nM to 30 μM. According to the method mentioned above, the compound was analyzed for its influence on FAAH activity. As a negative control, DMSO was used. As a positive control, URB597 was added to the substrate solution to have a concentration of 10 μM. Based on the measured value of the positive control, 0%, and on the measured value of the negative control, 100%, IC50 value of the test substance was obtained.

`N#Cc1cccc(CCC2CCN(C(=O)Oc3cncc(C(=O)NCCO)c3)CC2)c1` [Example 330] and `COc1cccc(CCC2CCN(C(=O)Oc3cncc(C(=O)NCCO)c3)CC2)c1` [Example 328] are within 1.5-fold of each other in IC50: 530 pM for the first, 420 pM for the second.

Going from `O=C(Oc1cccnc1)N1CCC(S(=O)(=O)c2ccc(OCc3cccc(F)c3)cc2)CC1` [Example 80] to `O=C(Oc1cccnc1)N1CCC(Sc2cccc(OCc3cccc(F)c3)c2)CC1` [Example 101], the IC50 rises from 44 pM to 78 pM (1.8-fold).

First: NC(=O)c1cncc(OC(=O)N2CCC(CCCC3CCN(c4ccc5ccccc5n4)CC3)CC2)c1 [Example 380]
Second: Cc1cccc(N2CCC(CCCC3CCN(C(=O)Oc4cncc(C(N)=O)c4)CC3)CC2)n1 [Example 378]
The IC50 of the first is 1.8-fold higher: 350 pM for the first, 200 pM for the second. The second is the more potent here.

`NC(=O)CCNC(=O)c1cncc(OC(=O)N2CCC(CCc3ccccc3)CC2)c1` [Example 333] and `NC(=O)c1cccc(-c2cncc(OC(=O)N3CCC(CCc4ccccc4)CC3)c2)c1` [Example 266] are within 1.5-fold of each other in IC50: 430 pM for the first, 310 pM for the second.

Going from `O=C(Oc1cccnc1)N1CCN(C(=O)c2ccc(OCc3cccc(Br)c3)cc2)CC1` [Example 159] to `O=C(Oc1cccnc1)N1CCN(C(=O)c2ccc(OCc3cccc(C(F)(F)F)c3)cc2)CC1` [Example 149], the IC50 rises from 230 pM to 450 pM (2-fold).

`O=C(Oc1cccnc1)N1CCN(C(=O)c2cccc(OCc3cccc(Cl)c3)c2)CC1` [Example 138] and `O=C(Oc1cccnc1)N1CCN(C(=O)c2ccc(OCc3ccc(F)cc3)cc2)CC1` [Example 155] are within 1.5-fold of each other in IC50: 78 pM for the first, 61 pM for the second.

Compared with `N#Cc1ccc(-c2ccc(CCC3CCN(C(=O)Oc4cncc(C(N)=O)c4)CC3)cc2)cc1` [Example 344], `N#Cc1ccc(-c2ccc(CCC3CCN(C(=O)Oc4cncc(C(=O)O)c4)CC3)cc2)cc1` [Example 301] is 3.1-fold higher in IC50: 130 pM for the first, 400 pM for the second.

`O=C(O)c1cncc(OC(=O)N2CCC(CCc3ccc(-c4ccccc4F)cc3)CC2)c1` [Example 304] and `NC(=O)c1cncc(OC(=O)N2CCC(CCc3ccc(-c4ccccc4F)cc3)CC2)c1` [Example 346] are within 1.5-fold of each other in IC50: 240 pM for the first, 270 pM for the second.

Compared with `N#Cc1cccc(-c2cccc(CCC3CCN(C(=O)Oc4cncc(C(N)=O)c4)CC3)c2)c1` [Example 341], `N#Cc1cccc(-c2cccc(CCC3CCN(C(=O)Oc4cncc(C(=O)O)c4)CC3)c2)c1` [Example 294] is 7.7-fold higher in IC50: 78 pM for the first, 600 pM for the second.

First: O=C(Oc1cncc(Cl)c1)N1CCC(Oc2ccc(OCc3cccc(F)c3)cc2)CC1 [Example 42]
Second: CN(C)c1cncc(OC(=O)N2CCC(Oc3ccc(OCc4cccc(F)c4)cc3)CC2)c1 [Example 30]
The IC50 of the first is 2.3-fold higher: 430 pM for the first, 190 pM for the second.

First: CCCCCCCCc1ccc(NC(=O)C2CCN(C(=O)Oc3cccnc3)CC2)cc1 [Example 176]
Second: CCN(CC)C(=O)c1ccc(CCC2CCN(C(=O)Oc3cncc(C(N)=O)c3)CC2)cc1 [Example 362]
The IC50 of the first is 2-fold higher: 840 pM for the first, 420 pM for the second.

Going from `O=C(Oc1cccnc1)N1CCC(Oc2ccc(OCc3cccc(F)c3)cn2)CC1` [Example 103] to `O=C(Oc1cccnc1)N1CCC(Oc2ccc(OCc3cccc(Cl)c3)cc2)CC1` [Example 206, 3-pyridyl 4-{4-[(3-chlorobenzyl)oxy]phenoxy}-1-piperidinecarboxylate hydrochloride], the IC50 rises from 92 pM to 170 pM (1.8-fold).

First: O=C(Oc1cccnc1)N1CCC(Oc2ccc(OCc3ccccc3F)cc2)CC1 [Example 208]
Second: O=C(Oc1cccnc1)N1CCC(Oc2ccc(OCc3ccccc3)cc2Cl)CC1 [Example 51]
The IC50 of the first is 2-fold lower: 130 pM for the first, 260 pM for the second.

`O=C(O)c1cncc(OC(=O)N2CCC(CCc3ccc(-c4cccc(F)c4)cc3)CC2)c1` [Example 302] and `O=C(O)c1cncc(OC(=O)N2CCC(CCc3cccc(-c4ccccc4)c3)CC2)c1` [Example 293] are within 1.5-fold of each other in IC50: 170 pM for the first, 240 pM for the second.

`NC(=O)c1cncc(OC(=O)N2CCC(CCc3cccc(-c4ccccc4)c3)CC2)c1` [Example 340] and `NC(=O)c1cncc(OC(=O)N2CCC(CCc3cccc(-c4ccccn4)c3)CC2)c1` [Example 349] are within 1.5-fold of each other in IC50: 52 pM for the first, 54 pM for the second.

Work on `COC(=O)CCc1cncc(OC(=O)N2CCC(Oc3ccc(OCc4cccc(F)c4)cc3)CC2)c1` [Example 61] yielded an IC50 of 350 pM.
